Reference: patent US12492173B2, “Herbicidal substituted N-tetrazolyl aryl carboxamides” (Bayer Aktiengesellschaft, priority 2019, dated 2025)

What follows are molecules tested on Echinochloa crus-galli (assay: Pre-emergence herbicidal action, ECHCG). Conditions: dosage 320 g/ha, scored visually after 3 weeks vs untreated controls (100% = plants have died).
Assay type: in vivo
How it was run: (§1)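 Pre-emergence soil spray over sandy loam-covered seeds; greenhouse 3 weeks; % visual damage (0% = control, 100% = dead).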

Structure (SMILES)	herbicidal activity ECHCG [%]
CCn1nnnc1NC(=O)c1ccc(C(F)F)c(CSC)c1SC [Example 2-170]	100
CCCn1nnnc1NC(=O)c1ccc(C(F)F)c(CSCC)c1Cl [Example 3-323]	100
CSCc1c(C(F)(F)F)ccc(C(=O)Nc2nnnn2C)c1C [Example 1-83]	100
CCn1nnnc1NC(=O)c1ccc(C(F)(F)F)c(CSCC(F)(F)F)c1Cl [Example 2-311]	100
C=CCSCc1c(C(F)(F)F)ccc(C(=O)Nc2nnnn2CCC)c1Cl [Example 3-308]	100
CCCn1nnnc1NC(=O)c1ccc(C(F)F)c(CSC)c1SC [Example 3-170]	100
CCn1nnnc1NC(=O)c1ccc(C(F)(F)F)c(CSCCOC)c1Cl [Example 2-305]	100
CCn1nnnc1NC(=O)c1ccc(C(F)F)c(CSC)c1Cl [Example 2-320]	100
CCn1nnnc1NC(=O)c1ccc(I)c(C[S+](C)[O-])c1Cl (stereo not drawn) [Example 2-363]	100
CCCn1nnnc1NC(=O)c1ccc(C(F)(F)F)c(C[S+](C)[O-])c1SC (stereo not drawn) [Example 3-162]	100
CCCn1nnnc1NC(=O)c1ccc(C(F)(F)F)c(CS(C)(=O)=O)c1SC [Example 3-163]	100

Each molecule was assayed on Setaria viridis (assay: Pre-emergence herbicidal action, SETVI). Conditions: dosage 320 g/ha, scored visually after 3 weeks vs untreated controls (100% = plants have died).
Assay type: in vivo
How it was run: as §1

Structure (SMILES)	herbicidal activity SETVI [%]
CCn1nnnc1NC(=O)c1ccc(C(F)F)c(CSC)c1SC [Example 2-170]	100
CCCn1nnnc1NC(=O)c1ccc(C(F)F)c(CSCC)c1Cl [Example 3-323]	100
CSCc1c(C(F)(F)F)ccc(C(=O)Nc2nnnn2C)c1C [Example 1-83]	100
CCn1nnnc1NC(=O)c1ccc(C(F)(F)F)c(CSCC(F)(F)F)c1Cl [Example 2-311]	100
C=CCSCc1c(C(F)(F)F)ccc(C(=O)Nc2nnnn2CCC)c1Cl [Example 3-308]	100
CCCn1nnnc1NC(=O)c1ccc(C(F)F)c(CSC)c1SC [Example 3-170]	100
CCn1nnnc1NC(=O)c1ccc(C(F)(F)F)c(CSCCOC)c1Cl [Example 2-305]	100
CCn1nnnc1NC(=O)c1ccc(C(F)F)c(CSC)c1Cl [Example 2-320]	100
CCn1nnnc1NC(=O)c1ccc(I)c(C[S+](C)[O-])c1Cl (stereo not drawn) [Example 2-363]	100
CCCn1nnnc1NC(=O)c1ccc(C(F)(F)F)c(C[S+](C)[O-])c1SC (stereo not drawn) [Example 3-162]	100
CCCn1nnnc1NC(=O)c1ccc(C(F)(F)F)c(CS(C)(=O)=O)c1SC [Example 3-163]	100

Each molecule was assayed on Viola tricolor (assay: Pre-emergence herbicidal action, VIOTR). Conditions: dosage 320 g/ha, scored visually after 3 weeks vs untreated controls (100% = plants have died).
Assay type: in vivo
How it was run: as §1

Structure (SMILES)	herbicidal activity VIOTR [%]
CCn1nnnc1NC(=O)c1ccc(C(F)F)c(CSC)c1SC [Example 2-170]	100
CCCn1nnnc1NC(=O)c1ccc(C(F)F)c(CSCC)c1Cl [Example 3-323]	100
CSCc1c(C(F)(F)F)ccc(C(=O)Nc2nnnn2C)c1C [Example 1-83]	100
CCn1nnnc1NC(=O)c1ccc(C(F)(F)F)c(CSCC(F)(F)F)c1Cl [Example 2-311]	100
C=CCSCc1c(C(F)(F)F)ccc(C(=O)Nc2nnnn2CCC)c1Cl [Example 3-308]	100
CCCn1nnnc1NC(=O)c1ccc(C(F)F)c(CSC)c1SC [Example 3-170]	100
CCn1nnnc1NC(=O)c1ccc(C(F)(F)F)c(CSCCOC)c1Cl [Example 2-305]	100
CCn1nnnc1NC(=O)c1ccc(C(F)F)c(CSC)c1Cl [Example 2-320]	100
CCn1nnnc1NC(=O)c1ccc(I)c(C[S+](C)[O-])c1Cl (stereo not drawn) [Example 2-363]	100
CCCn1nnnc1NC(=O)c1ccc(C(F)(F)F)c(C[S+](C)[O-])c1SC (stereo not drawn) [Example 3-162]	100
CCCn1nnnc1NC(=O)c1ccc(C(F)(F)F)c(CS(C)(=O)=O)c1SC [Example 3-163]	100

These molecules were tested on Amaranthus retroflexus (assay: Post-emergence herbicidal action, AMARE). Conditions: Dosage 80 g/ha.
Assay type: in vivo
Design: key: % herbicidal action vs untreated; 100 = plants died, 0 = like control
How it was run: (§2)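 Greenhouse post-emergence test: weeds sown in sandy loam were sprayed once at one leaf, 2 to 3 weeks from sowing, with aqueous WP or EC preparations carrying 0.2% wetting agent. Effect is scored visually after about 3 weeks.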

Structure (SMILES)	herbicidal action AMARE
CCn1nnnc1NC(=O)c1ccc(C(F)F)c(CSC)c1SC [Example 2-170]	100
CCCn1nnnc1NC(=O)c1ccc(C(F)F)c(CSCC)c1Cl [Example 3-323]	90
CCn1nnnc1NC(=O)c1ccc(C(F)(F)F)c(CSCC(F)(F)F)c1Cl [Example 2-311]	100
C=CCSCc1c(C(F)(F)F)ccc(C(=O)Nc2nnnn2CCC)c1Cl [Example 3-308]	100
CCCn1nnnc1NC(=O)c1ccc(C(F)F)c(CSC)c1SC [Example 3-170]	100
CCn1nnnc1NC(=O)c1ccc(C(F)F)c(CSC)c1Cl [Example 2-320]	100
CCn1nnnc1NC(=O)c1ccc(I)c(C[S+](C)[O-])c1Cl (stereo not drawn) [Example 2-363]	100
CCCn1nnnc1NC(=O)c1ccc(C(F)(F)F)c(CS(C)(=O)=O)c1SC [Example 3-163]	90

Same assay, conditions: post-emergence, dosage 80 g/ha

Structure (SMILES)	herbicidal action AMARE [%]
CSCc1c(C(F)(F)F)ccc(C(=O)Nc2nnnn2C)c1C [Example 1-83]	100
CCn1nnnc1NC(=O)c1ccc(C(F)(F)F)c(CSCCOC)c1Cl [Example 2-305]	100
CCCn1nnnc1NC(=O)c1ccc(C(F)(F)F)c(C[S+](C)[O-])c1SC (stereo not drawn) [Example 3-162]	100

These molecules were tested on Pharbitis purpurea (assay: Post-emergence herbicidal action, PHBPU). Conditions: Dosage 80 g/ha.
Assay type: in vivo
How it was run: as §2

Structure (SMILES)	herbicidal action PHBPU
CCn1nnnc1NC(=O)c1ccc(C(F)F)c(CSC)c1SC [Example 2-170]	90
CCCn1nnnc1NC(=O)c1ccc(C(F)F)c(CSCC)c1Cl [Example 3-323]	90
CCn1nnnc1NC(=O)c1ccc(C(F)(F)F)c(CSCC(F)(F)F)c1Cl [Example 2-311]	90
C=CCSCc1c(C(F)(F)F)ccc(C(=O)Nc2nnnn2CCC)c1Cl [Example 3-308]	90
CCCn1nnnc1NC(=O)c1ccc(C(F)F)c(CSC)c1SC [Example 3-170]	90
CCn1nnnc1NC(=O)c1ccc(C(F)F)c(CSC)c1Cl [Example 2-320]	90
CCn1nnnc1NC(=O)c1ccc(I)c(C[S+](C)[O-])c1Cl (stereo not drawn) [Example 2-363]	90
CCCn1nnnc1NC(=O)c1ccc(C(F)(F)F)c(CS(C)(=O)=O)c1SC [Example 3-163]	90

Same assay, conditions: post-emergence, dosage 80 g/ha

Structure (SMILES)	herbicidal action PHBPU [%]
CSCc1c(C(F)(F)F)ccc(C(=O)Nc2nnnn2C)c1C [Example 1-83]	100
CCn1nnnc1NC(=O)c1ccc(C(F)(F)F)c(CSCCOC)c1Cl [Example 2-305]	100
CCCn1nnnc1NC(=O)c1ccc(C(F)(F)F)c(C[S+](C)[O-])c1SC (stereo not drawn) [Example 3-162]	90

What follows are molecules tested on Viola tricolor (assay: Post-emergence herbicidal action, VIOTR). Conditions: Dosage 80 g/ha.
Assay type: in vivo
Design: key: % herbicidal action vs untreated; 100 = plants died, 0 = like control
How it was run: as §2

Structure (SMILES)	herbicidal action VIOTR
CCn1nnnc1NC(=O)c1ccc(C(F)F)c(CSC)c1SC [Example 2-170]	100
CCCn1nnnc1NC(=O)c1ccc(C(F)F)c(CSCC)c1Cl [Example 3-323]	90
CCn1nnnc1NC(=O)c1ccc(C(F)(F)F)c(CSCC(F)(F)F)c1Cl [Example 2-311]	100
C=CCSCc1c(C(F)(F)F)ccc(C(=O)Nc2nnnn2CCC)c1Cl [Example 3-308]	80
CCCn1nnnc1NC(=O)c1ccc(C(F)F)c(CSC)c1SC [Example 3-170]	100
CCn1nnnc1NC(=O)c1ccc(C(F)F)c(CSC)c1Cl [Example 2-320]	100
CCn1nnnc1NC(=O)c1ccc(I)c(C[S+](C)[O-])c1Cl (stereo not drawn) [Example 2-363]	100
CCCn1nnnc1NC(=O)c1ccc(C(F)(F)F)c(CS(C)(=O)=O)c1SC [Example 3-163]	100

Same assay, conditions: post-emergence, dosage 80 g/ha

Structure (SMILES)	herbicidal action VIOTR [%]
CSCc1c(C(F)(F)F)ccc(C(=O)Nc2nnnn2C)c1C [Example 1-83]	90
CCn1nnnc1NC(=O)c1ccc(C(F)(F)F)c(CSCCOC)c1Cl [Example 2-305]	100
CCCn1nnnc1NC(=O)c1ccc(C(F)(F)F)c(C[S+](C)[O-])c1SC (stereo not drawn) [Example 3-162]	100
